Measurements reported in patent US8987195B2 (priority 2012, dated 2015).
Read-outs that look alike come from different tables or passages of the source.

Legend:
[1] = tested on: HCV genotype 1b replicon; experiment: HCV replicon assay, genotype 1b replicon EC50; format: cell-based, Hepatitis C virus; conditions: Hepatitis C virus, genotype 1b replicon, read-out: EC50 [gt-1b]
Summary of the method: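 Assay format: compound titration on stable replicon cells, no G418 during treatment, 24 to 48 hours. Lysates were assayed for replicon RNA (hybridization/protection or TaqMan) or luciferase; EC50 fitted to four parameters against DMSO.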

[2] = target: HCV NS3/4A protease genotype 1b (Hepatitis C virus genotype 1b, UniProt P26663); experiment: HCV NS3/4A protease time-resolved fluorescence (TRF) assay, Ki against genotype 1b; format: biochemical; conditions: IC50 [gt-1b] (nM), NS3/4A genotype 1b, enzyme 0.2 nM
Summary of the method: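 Enzyme 0.2 nM 1b / 0.4 nM A156T / 0.025 nM 3a; 30 min preinc. w/ cpd; 25 nM TRF peptide; 2.5 h RT; ex 340/em 615 time-delayed; 4-param IC50 → Ki = IC50/(1+[S]/KM).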

Compound	EC50 [1]	IC50 [2]	EC50 ([1]; K+ salt)	IC50 ([2]; K+ salt)	EC50 ([1]; GETYPE1B|GT1B)
CC(C)C1(OC(=O)N[C@H]2CCCCC/C=C\[C@@H]3C[C@@]3(C(=O)NS(=O)(=O)C3(C)CC3)NC(=O)[C@@H]3C[C@]4(CCc5c(c(C(F)(F)F)nc6ccccc56)O4)CN3C2=O)CC1 [Example 158, 1-(propan-2-yl)cyclopropyl [(2R,6S,12Z,13aS,14aR,16aS)-14a-{[(1-methylcyclopropyl)sulfonyl]carbamoyl}-5,16-dioxo-5′-(trifluoromethyl)-1,1′,2′,5,6,7,8,9,10,11,13a,14,14a,15,16,16a-hexadecahydrospiro[cyclopropa[e]pyrrolo[1,2-a][1,4]diazacyclopentadecine-2,3′-pyrano[2,3-c]quinolin]-6-yl]carbamate]	1.17 nM	0.02 nM			
CC1(OC(=O)N[C@H]2CCCCC/C=C\[C@@H]3C[C@@]3(C(=O)NS(=O)(=O)C3(C)CC3)NC(=O)[C@@H]3C[C@]4(CCc5c(c(C(F)(F)F)nc6ccccc56)O4)CN3C2=O)CC1 [Example 159, 1-methylcyclopropyl [(2R,6S,12Z,13aS,14aR,16aS)-14a-{[(1-methylcyclopropyl)sulfonyl]carbamoyl}-5,16-dioxo-5′-(trifluoromethyl)-1,1′,2′,5,6,7,8,9,10,11,13a,14,14a,15,16,16a-hexadecahydrospiro[cyclopropa[e]pyrrolo[1,2-a][1,4]diazacyclopentadecine-2,3′-pyrano[2,3-c]quinolin]-6-yl]carbamate]	1.19 nM	0.013 nM			
CC(C)COC(=O)N[C@H]1CCCCC/C=C\[C@@H]2C[C@@]2(C(=O)NS(=O)(=O)C2(C)CC2)NC(=O)[C@@H]2C[C@]3(CCc4c(c(C(F)(F)F)nc5ccccc45)O3)CN2C1=O [Example 160, 2-methylpropyl [(2R,6S,12Z,13aS,14aR,16aS)-14a-{[(1-methylcyclopropyl)sulfonyl]carbamoyl}-5,16-dioxo-5′-(trifluoromethyl)-1,1′,2′,5,6,7,8,9,10,11,13a,14,14a,15,16,16a-hexadecahydrospiro[cyclopropa[e]pyrrolo[1,2-a][1,4]diazacyclopentadecine-2,3′-pyrano[2,3-c]quinolin]-6-yl]carbamate]			1.82 nM	0.026 nM	
Cc1nc2ccccc2c2c1O[C@]1(CC2)C[C@H]2C(=O)N[C@]3(C(=O)CS(=O)(=O)C4(C)CC4)C[C@H]3/C=C\CCCCC[C@H](NCCC3CCCC3)C(=O)N2C1 [Example 161]		0.138 nM			3.02 nM
Cc1nc2ccccc2c2c1O[C@]1(CC2)C[C@H]2C(=O)N[C@]3(C(=O)NS(=O)(=O)C4(C)CC4)C[C@H]3/C=C\CCCCC[C@H](N(CCC3CCCC3)CCC3CCCC3)C(=O)N2C1 [Example 162, (2R,6S,12Z,13aS,14aR,16aS)-6-[bis(2-cyclopentylethyl)amino]-5′-methyl-N-[(1-methylcyclopropyl)sulfonyl]-5,16-dioxo-1,1′,2′,6,7,8,9,10,11,13a,14,15,16,16a-tetradecahydrospiro[cyclopropa[e]pyrrolo[1,2-a][1,4]diazacyclopentadecine-2,3′-pyrano[2,3-c]quinoline]-14a(5H)-carboxamide]	72 nM	6.38 nM			
Cc1nc2ccccc2c2c1O[C@]1(CC2)C[C@H]2C(=O)N[C@]3(C(=O)NS(=O)(=O)C4(C)CC4)C[C@H]3/C=C\CCCCC[C@H](N(CCC(C)(C)C)CCC(C)(C)C)C(=O)N2C1 [Example 163, (2R,6S,12Z,13aS,14aR,16aS)-6-[bis(3,3-dimethylbutyl)amino]-5′-methyl-N-[(1-methylcyclopropyl)sulfonyl]-5,16-dioxo-1,1′,2′,6,7,8,9,10,11,13a,14,15,16,16a-tetradecahydrospiro[cyclopropa[e]pyrrolo[1,2-a][1,4]diazacyclopentadecine-2,3′-pyrano[2,3-c]quinoline]-14a(5H)-carboxamide]	> 100 nM	6.21 nM			
Cc1nc2ccccc2c2c1O[C@]1(CC2)C[C@H]2C(=O)N[C@]3(C(=O)NS(=O)(=O)C4(C)CC4)C[C@H]3/C=C\CCCCC[C@H](NCCC(C)(C)C)C(=O)N2C1 [Example 164, (2R,6S,12Z,13aS,14aR,16aS)-6-[(3,3-dimethylbutyl)amino]-5′-methyl-N-[(1-methylcyclopropyl)sulfonyl]-5,16-dioxo-1,1′,2′,6,7,8,9,10,11,13a,14,15,16,16a-tetradecahydrospiro[cyclopropa[e]pyrrolo[1,2-a][1,4]diazacyclopentadecine-2,3′-pyrano[2,3-c]quinoline]-14a(5H)-carboxamide]	2.71 nM	0.132 nM			
COc1ccc2nc(C(C)C)c3c(c2c1)CC[C@]1(C[C@H]2C(=O)N[C@]4(C(=O)NS(=O)(=O)C5(C)CC5)C[C@H]4/C=C\CCCCC[C@H](NC(=O)OC4(C)CC4)C(=O)N2C1)O3 [Example 165, 1-methylcyclopropyl [(2R,6S,12Z,13aS,14aR,16aS)-9′-methoxy-14a-{[(1-methylcyclopropyl)sulfonyl]carbamoyl}-5,16-dioxo-5′-(propan-2-yl)-1,1′,2′,5,6,7,8,9,10,11,13a,14,14a,15,16,16a-hexadecahydrospiro[cyclopropa[e]pyrrolo[1,2-a][1,4]diazacyclopentadecine-2,3′-pyrano[2,3-c]quinolin]-6-yl]carbamate]	1.39 nM	0.005 nM			
CC1(S(=O)(=O)NC(=O)[C@@]23C[C@H]2/C=C\CCCCC[C@H](NC(=O)OC2CCCCC2)C(=O)N2C[C@@]4(CCc5c(c(C6CC6)nc6c(F)cccc56)O4)C[C@H]2C(=O)N3)CC1 [Example 166, cyclohexyl [(2R,6S,12Z,13aS,14aR,16aS)-5′-cyclopropyl-7′-fluoro-14a-{[(1-methylcyclopropyl)sulfonyl]carbamoyl}-5,16-dioxo-1,1′,2′,5,6,7,8,9,10,11,13a,14,14a,15,16,16a-hexadecahydrospiro[cyclopropa[e]pyrrolo[1,2-a][1,4]diazacyclopentadecine-2,3′-pyrano[2,3-c]quinolin]-6-yl]carbamate]	2.4 nM	0.019 nM			
CC(C)C1(OC(=O)N[C@H]2CCCCC/C=C\[C@@H]3C[C@@]3(C(=O)NS(=O)(=O)C3(C)CC3)NC(=O)[C@@H]3C[C@]4(CCc5c(c(C6CC6)nc6c(F)cccc56)O4)CN3C2=O)CC1 [Example 167, 1-(propan-2-yl)cyclopropyl [(2R,6S,12Z,13aS,14aR,16aS)-5′-cyclopropyl-7′-fluoro-14a-{[(1-methylcyclopropyl)sulfonyl]carbamoyl}-5,16-dioxo-1,1′,2′,5,6,7,8,9,10,11,13a,14,14a,15,16,16a-hexadecahydrospiro[cyclopropa[e]pyrrolo[1,2-a][1,4]diazacyclopentadecine-2,3′-pyrano[2,3-c]quinolin]-6-yl]carbamate]	1.88 nM	0.02 nM			
CC1(OC(=O)N[C@H]2CCCCC/C=C\[C@@H]3C[C@@]3(C(=O)NS(=O)(=O)C3(C)CC3)NC(=O)[C@@H]3C[C@]4(CCc5c(c(C6CC6)nc6c(F)cccc56)O4)CN3C2=O)CC1 [Example 168, 1-methylcyclopropyl [(2R,6S,12Z,13aS,14aR,16aS)-5′-cyclopropyl-7′-fluoro-14a-{[(1-methylcyclopropyl)sulfonyl]carbamoyl}-5,16-dioxo-1,1′,2′,5,6,7,8,9,10,11,13a,14,14a,15,16,16a-hexadecahydrospiro[cyclopropa[e]pyrrolo[1,2-a][1,4]diazacyclopentadecine-2,3′-pyrano[2,3-c]quinolin]-6-yl]carbamate]	3.73 nM	0.013 nM			
COc1ccc2nc(C(C)C)c3c(c2c1)CC[C@]1(C[C@H]2C(=O)N[C@]4(C(=O)NS(=O)(=O)C5(C)CC5)C[C@H]4/C=C\CCCCC[C@H](NC(=O)OC4(C)CCC4)C(=O)N2C1)O3 [Example 169, 1-methylcyclobutyl [(2R,6S,12Z,13aS,14aR,16aS)-9′-methoxy-14a-{[(1-methylcyclopropyl)sulfonyl]carbamoyl}-5,16-dioxo-5′-(propan-2-yl)-1,1′,2′,5,6,7,8,9,10,11,13a,14,14a,15,16,16a-hexadecahydrospiro[cyclopropa[e]pyrrolo[1,2-a][1,4]diazacyclopentadecine-2,3′-pyrano[2,3-c]quinolin]-6-yl]carbamate]	1.53 nM	0.019 nM			
COc1ccc2nc(C3CCC3)c3c(c2c1)CC[C@]1(C[C@H]2C(=O)N[C@]4(C(=O)NS(=O)(=O)C5(C)CC5)C[C@H]4/C=C\CCCCC[C@H](NC(=O)OC4CCCC4)C(=O)N2C1)O3 [Example 170, cyclopentyl [(2R,6S,12Z,13aS,14aR,16aS)-5′-cyclobutyl-9′-methoxy-14a-{[(1-methylcyclopropyl)sulfonyl]carbamoyl}-5,16-dioxo-1,1′,2′,5,6,7,8,9,10,11,13a,14,14a,15,16,16a-hexadecahydrospiro[cyclopropa[e]pyrrolo[1,2-a][1,4]diazacyclopentadecine-2,3′-pyrano[2,3-c]quinolin]-6-yl]carbamate]	2.65 nM	0.013 nM			
COc1ccc2nc(C3CCC3)c3c(c2c1)CC[C@]1(C[C@H]2C(=O)N[C@]4(C(=O)NS(=O)(=O)C5(C)CC5)C[C@H]4/C=C\CCCCC[C@H](NC(=O)OCC(C)C)C(=O)N2C1)O3 [Example 171, 2-methylpropyl [(2R,6S,12Z,13aS,14aR,16aS)-5′-cyclobutyl-9′-methoxy-14a-{[(1-methylcyclopropyl)sulfonyl]carbamoyl}-5,16-dioxo-1,1′,2′,5,6,7,8,9,10,11,13a,14,14a,15,16,16a-hexadecahydrospiro[cyclopropa[e]pyrrolo[1,2-a][1,4]diazacyclopentadecine-2,3′-pyrano[2,3-c]quinolin]-6-yl]carbamate]	1.62 nM	0.013 nM			
